Literature values in US8795652B1, “Methods and compositions to treat myocardial conditions” (Abbott Cardiovascular Systems Inc., priority 2003, dated 2014).

Compound	O2 solubility at 37° C.	arterial oxygen saturation (ductus arteriosus; four neonates, infused prior to and during surgery)	side effects (ductus arteriosus; in vivo)
FC(F)(F)C(F)(F)C(F)(F)C(F)(F)CCC(F)(F)C(F)(F)C(F)(F)C(F)(F)F [F-44E, 1,2-bis(perfluorobutyl)ethane]	50 V %		
FC1(F)C(F)(F)C(F)(F)C2(F)C(F)(F)C(F)(F)C(F)(F)C(F)(F)C2(F)C1(F)F (stereo not shown) [FDC, Perfluorodecalin]	45 V %		
CCCCC[C@H](O)/C=C/[C@H]1[C@H](O)CC(=O)[C@@H]1C/C=C\CCCC(=O)O [PGE2, prostaglandin E2]		immediate and persistent rise	No major side effects occurred, except for pyrexia in two infants
